Reference: patent US10221168B1, “Small-compound enhancers for functional O-mannosylation of alpha-dystroglycan, and uses thereof” (priority 2015, dated 2019)

Tested on: FOG of α-DG on the cell surfaces
Assay: Cell-based HTS/HCS assay, IIH6 antibody as probe (EC1.5)
Settings: concentration of the compound required to enhance the FOG of α-DG by 50% over the controls; cell-based assays in vitro
From the text: Protein glycosylation is a multiple-step process that requires a large number of proteins in the secretory pathway of the cells. Thus we chose cell-based assay because our goal is to identify enhancer the FOG of α-DG on the cell surfaces. The assay system is HTS/HCS friendly and can adapt to various cell lines including myotubes as well as various readout methods including AlphaScreen, fluorescence density and HCS/fluorescence imaging. The standard operation protocol (SOP) for adhesion cells is described below and the FIG. 1 illustrates the assay process using myoblasts as the controls and screening cells and the IIH6 antibody as the probe. Other adhesion cells such CHO (Chinese hamster ovary) cell line can be implemented into this assay by simply removing the differentiation step.
Cell cultures: All cells are cultured at 37° C., 5% CO2, in appropriate media (F-12 for epithelial cells and DMEM for myoblasts) supplement with 10-20% fetal calf serum (FCS) and 1% antibiotics. […] The cells will be detached with trypsin EDTA and suspended in the cell culture media. The cells will be counted and seeded into the multiple-well plates as desired. Myotubes formation: When the myoblasts reach confluence, change the growth media to differential media (DEME with 2% horse serum) and incubate for 4-5 days.
The cells were fixed, permeablized, and then blocked with 10% BSA in PBS for 1 hour. […] After washing the cells with PBS for 2 times, the DAPI was used to stain the cells for 15 mins and wash 3 times with PBS. The images were captured with an inverted Olympus fluorescent microscope. For small compound localization experiment, the cells are incubated with the biotin conjugated compounds and then the cells were washed and incubated with streptavidin-Dye and then images will be captured to see the location of the compound-target-protein.
H, EC1.5<5 μM; M, EC1.5-20 μM; L, EC1.5 20-50 μM; VL, EC1.5>50 μM.

Compound	Activity (EC1.5)
CCC(c1nnnn1Cc1cccs1)N1CCN(c2nc3cccnc3s2)CC1 (stereo not drawn) [Compound 24, 2-(4-(1-(1-(thiophen-2-ylmethyl)-1H-tetrazol-5-yl)propyl)piperazin-1-yl)thiazolo[5,4-b]pyridine]	M (EC1.5-20 μM)
CCC(c1nnnn1Cc1cccs1)N1CCN(c2nc3ccc(N)c(F)c3s2)CC1 (stereo not drawn) [Compound 49, 6-amino-7-fluoro-2-(4-(1-(1-(thiophen-2-ylmethyl)-1H-tetrazol-5-yl)propyl)piperazin-1-yl)benzothiazole]	H (EC1.5<5 μM)
CCC(c1nnnn1Cc1cccs1)N1CCN(c2nc3ccc(Cl)cc3s2)CC1 (stereo not drawn) [Compound 15, 6-chloro-2-(4-(1-(1-(thiophen-2-ylmethyl)-1H-tetrazol-5-yl)propyl)piperazin-1-yl)benzothiazole]	M (EC1.5-20 μM)
CCC(c1nnnn1Cc1cccs1)N1CCN(c2nc3cccc(C(F)(F)F)c3s2)CC1 (stereo not drawn) [Compound 26, 2-(4-(1-(1-(thiophen-2-ylmethyl)-1H-tetrazol-5-yl)propyl)piperazin-1-yl)-7-(trifluoramethyl)benzothiazole]	L (EC1.5 20-50 μM)
CCC(c1nnnn1CCc1cccs1)N1CCN(c2nc3cc(N)cc(F)c3s2)CC1 (stereo not drawn) [Compound 55, 5-amino-7-fluoro-2-(4-(1-(1-(thiophen-2-ylethyl)-1H-tetrazol-5-yl)propyl)piperazin-1-yl)benzothiazole]	H (EC1.5<5 μM)
CCC(c1nnnn1Cc1cccs1)N1CCN(c2nc3ccc(NC(=O)c4ccccc4Cl)cc3s2)CC1 (stereo not drawn) [Compound 18, 2-chloro-N-(2-(4-(1-(1-(thiophen-2-ylmethyl)-1H-tetrazol-5-yl)propyl)piperazin-1-yl)benzothiazol-6-yl)benzamide]	VL (EC1.5>50 μM)
CC(c1nnnn1Cc1cccs1)N1CCN(c2nc3ccccc3s2)CC1 (stereo not drawn) [Compound 3, 2-(4-(1-(1-(thiophen-2-ylmethyl)-1H-tetrazol-5-yl)ethyl)piperazin-1-yl)benzothiazole]	M (EC1.5-20 μM)
c1csc(Cn2nncc2CN2CCN(c3nc4ccccc4s3)CC2)c1 [Compound 1, 2-(4-((1-(thiophen-2-ylmethyl)-1H-1,2,3-triazol-5-yl)methyl)piperazin-1-yl)benzothiazole]	L (EC1.5 20-50 μM)
CCC(c1nnnn1Cc1cccs1)N1CCN(c2nc3ccc(NC(=O)c4ccccc4C)cc3s2)CC1 (stereo not drawn) [Compound 19, 2-methyl-N-(2-(4-(1-(1-(thiophen-2-ylmethyl)-1H-tetrazol-5-yl)propyl)piperazin-1-yl)benzothiazol-6-yl)benzamide]	VL (EC1.5>50 μM)
CCC(c1nnnn1Cc1ccc(F)s1)N1CCN(c2nc3cc(N)cc(F)c3s2)CC1 (stereo not drawn) [Compound 57, 5-amino-7-fluoro-2-(4-(1-(1-(5-fluoro-thiophen-2-ylmethyl)-1H-tetrazol-5-yl)propyl)piperazin-1-yl)benzothiazole]	H (EC1.5<5 μM)
CCC(c1nnnn1CCc1cccs1)N1CCN(c2nc3cc(N)cc(F)c3s2)C([N+](=O)[O-])C1 (stereo not drawn) [Compound 67, 5-amino-7-fluoro-2-(4-(1-(1-(thiophen-2-ylethyl)-1H.tetrazol-5-yl)propyl)-2-nitro-piperazin-1-yl)benzothiazole]	H (EC1.5<5 μM)
CCC(c1nnnn1CCc1cccs1)N1CCN(c2nc3cc(N)cc(F)c3s2)CC1[N+](=O)[O-] (stereo not drawn) [Compound 64, 5-amino-7-fluoro-2-(4-(1-(1-(thiophen-2-ylethyl)-1H-tetrazol-5-yl)propyl)-3-nitro-piperazin-1-yl)benzothiazole]	H (EC1.5<5 μM)
CCC(c1nnnn1Cc1cccs1)N1CCN(c2nc3ccc(NC(=O)CCCC[C@@H]4SC[C@@H]5NC(=O)N[C@@H]54)cc3s2)CC1 (stereo partly drawn) [Compound 12, 5-((3aS,4S,6aR)-2-oxohexahydro-1H-thieno[3,4-d]imidazol-4-yl)-N-(2-(4-(1-(1-(thiophen-2-ylmethyl)-1H-tetrazol-5-yl)propyl)piperazin-1-yl)benzothiazol-6-yl)pentanamide]	H (EC1.5<5 μM)
CCC(c1nnnn1Cc1cccs1)C1CCCC(c2nc3cc(N)cc(F)c3s2)CC1 (stereo not drawn) [Compound 68, 5-amino-7-fluoro-2-(4-(1-(1-(thiophen-2-ylmethyl)-1H-tetrazol-5-yl)propyl)cycloheptyl)benzothiazole]	H (EC1.5<5 μM)
c1csc(Cn2nnnc2CN2CCN(c3nc4ccccc4s3)CC2)c1 [Compound 2, 2-(4-((1-(thiophen-2-ylmethyl)-1H-tetrazol-5-yl)methyl)piperazin-1-yl)benzothiazole]	M (EC1.5-20 μM)
CCC(c1nnnn1CCc1cccs1)N1CCN(C2Sc3c(F)cc(N)cc3N2C)CC1 (stereo not drawn) [Compound 63, 5-amino-7-fluoro-3-methyl-2-(4-(1-(1-(thiophen-2-ylethyl)-1H-tetrazol-5-yl)propyl)piperazin-1-yl)benzothiazole]	H (EC1.5<5 μM)
CCC(c1nnnn1Cc1cccs1)N1CCN(c2nc3ccc(F)cc3s2)CC1 (stereo not drawn) [Compound 13, 6-fluoro-2-(4-(1-(1-(thiophen-2-ylmethyl)-1H-tetrazol-5-yl)propyl)piperazin-1-yl)benzothiazole]	L (EC1.5 20-50 μM)
CCC(c1nnnn1Cc1cccs1)N1CCN(c2nc3c(N)cccc3s2)CC1 (stereo not drawn) [Compound 23, 4-aminn-2-(4-(1-(1-(thiophen-2-ylmethyl) 1H-tetrazol-5-yl)propyl)piperazin-1-yl)benzothiazole]	M (EC1.5-20 μM)
CCC(c1nnnn1Cc1cccs1)N1CCN(c2nc3c([N+](=O)[O-])cccc3s2)CC1 (stereo not drawn) [Compound 22, 4-nitro-2-(4-(1-(1-(thiophen-2-ylmethyl)-1H-tetrazol-5-yl)propyl)piperazin-1-yl)benzothiazole]	L (EC1.5 20-50 μM)
CCC(c1nnnn1Cc1cccs1)N1CCN(c2nc3c(F)cccc3s2)CC1 (stereo not drawn) [Compound 30, 4-fluoro-2-(4-(1-(1-(thiophen-2-ylmethyl)-1H-tetrazol-5-yl)propyl)piperazin-1-yl)benzothiazole]	H (EC1.5<5 μM)
CCC(c1nnnn1Cc1cccs1)N1CCN(c2nc3c(F)c(N)ccc3s2)CC1 (stereo not drawn) [Compound 47, 5-amino-4-fluoro-2-(4-(1-(1-(thiophen-2-ylmethyl)-1H-tetrazol-5-yl)propyl)piperazin-1-yl)benzothiazole]	H (EC1.5<5 μM)
CCC(c1nnnn1Cc1cccs1)N1CCN(c2nc3ccc([N+](=O)[O-])cc3s2)CC1 (stereo not drawn) [Compound 10, 6-nitro-2-(4-(1-(1-(thiophen-2-ylmethyl)-1H-tetrazol-5-yl)propyl)piperazin-1-yl)benzothiazole]	VL (EC1.5>50 μM)
CCC(NCCNc1nc2cccc(F)c2s1)c1nnnn1Cc1cccs1 (stereo not drawn) [Compound 27, N^1-(7-fluorobenzothiazol-2-yl)-N^2-(1-(1-(thiophen-2-ylmethyl)-1H-tetrazol-5-yl)propyl)ethane-1,2-diamine]	M (EC1.5-20 μM)
CCC(c1nnnn1Cc1cccs1)N1CCN(c2nc3cc(N)c(N)cc3s2)CC1 (stereo not drawn) [Compound 54, 5,6-diamino-2-(4-(1-(1-(thiophen-2-ylmethyl)-1H-tetrazol-5-yl)propyl)piperazin-1-yl)benzothiazole]	H (EC1.5<5 μM)
